Test results as given in patent publication US20100004235A1, “Heterocyclic Substituted, Anellated Pyrazole Derivative and its uses” (BAYER HEALTHCARE AG, priority 2006, published 2010).

tested on: rabbit aorta rings; assay: Vasorelaxant effect in vitro (rabbit aorta rings, phenylephrine-induced contraction); settings: Oryctolagus cuniculus; concentration reducing the height of the phenylephrine-induced contraction of rabbit aorta rings by 50%; 0.1% DMSO
Experimental: Rabbits are stunned by a blow to the neck and exsanguinated. The aorta is removed, freed from adhering tissue and divided into rings of a width of 1.5 mm. The rings are placed individually under an initial tension in 5 ml organ baths with Krebs-Henseleit solution which is at 37° C., is gassed with carbogen and has the following composition (in each case mM): NaCl: 119; KCl: 4.8; CaCl2×2H2O: 1; MgSO4×7H2O: 1.4; KH2PO4: 1.2; NaHCO3: 25; glucose: 10. The force of contraction is detected with Statham UC2 cells, amplified and digitized via A/D converters (DAS-1802 HC, Keithley Instruments, Munich) and recorded in parallel on chart recorders. Contractions are induced by cumulatively adding increasing concentrations of phenylephrine to the bath. After several control cycles, the substance to be investigated is added in each further run in increasing dosage, and the height of the contraction achieved is compared with the height of the contraction reached in the last preceding one. The concentration necessary to reduce the height of the control value by 50% is calculated from this (IC50 value). The standard application volume is 5 μl, the proportion of DMSO in the bath solution corresponds to 0.1%.

Going from `O=c1[nH]c(-c2nn(Cc3ccccc3F)c3ncccc23)no1` [Example 1, 3-[1-(2-Fluorobenzyl)-1H-pyrazolo[3,4-b]pyridin-3-yl]-1,2,4-oxadiazol-5(4H)-one] to `Fc1ccccc1Cn1nc(-c2noc(=S)[nH]2)c2cccnc21` [Example 7, 3-[1-(2-Fluorobenzyl)-1H-pyrazolo[3,4-b]pyridin-3-yl]-1,2,4-oxadiazole-5(4H)-thione], the IC50 falls from 2100 nM to 1100 nM (1.9-fold).

`O=c1[nH]c(-c2nn(Cc3ccccc3F)c3ncccc23)ns1` [Example 2, 3-[1-(2-Fluorobenzyl)-1H-pyrazolo[3,4-b]pyridin-3-yl]-1,2,4-thiadiazol-5(4H)-one] and `O=c1[nH]nc(-c2nn(Cc3ccccc3F)c3ncccc23)o1` [Example 3, 5-[1-(2-Fluorobenzyl)-1H-pyrazolo[3,4-b]pyridin-3-yl]-1,3,4-oxadiazol-2(3H)-one] are within 1.5-fold of each other in IC50: 450 nM for the first, 610 nM for the second.

First: O=c1[nH]c(-c2nn(Cc3ccccc3F)c3ncccc23)nn1CC(F)(F)F [Example 18, 5-[1-(2-Fluorobenzyl)-1H-pyrazolo[3,4-b]pyridin-3-yl]-2-(2,2,2-trifluoroethyl)-2,4-dihydro-3H-1,2,4-triazol-3-one]
Second: CC(=O)OCCn1nc(-c2nn(Cc3ccccc3F)c3ncccc23)[nH]c1=O [Example 19, 2-{3-[1-(2-Fluorobenzyl)-1H-pyrazolo[3,4-b]pyridin-3-yl]-5-oxo-4,5-dihydro-1H-1,2,4-triazol-1-yl}ethyl acetate]
The IC50 of the first is 3.4-fold lower: 610 nM for the first, 2100 nM for the second. The first is the more potent here.

tested on: vessel; assay: not given; settings: literature report; cited from earlier work

For `Fc1ccccc1Cn1nc(-c2nnn[nH]2)c2cccnc21` [1-(2-fluorobenzyl)-3-(1H-tetrazol-5-yl)-1H-pyrazolo[3,4-b]pyridine], the vessel-relaxing effect is given as “moderate”.
